Source: patent US20210275698A1, “COMPOUNDS AND COMPOSITIONS FOR TARGETING MACROPHAGES AND OTHER MANNOSE-BINDING C-TYPE LECTIN RECEPTOR HIGH EXPRESSING CELLS AND METHODS OF TREATING AND DIAGNOSIS USING SAME” (priority 2015, published 2021)

Columns and labels:
[1] = system: monocyte-derived CD206+ macrophages; test: CD206 targeting assay: uptake, killing and apoptosis of monocyte-derived CD206+ macrophages; type: cell-based
[2] = system: luciferase-expressing M. tuberculosis H37Rv strain (M.tb-Lux); test: Anti-bacterial activity against M.tb in human macrophages (luminescence); type: cell-based; conditions: drug equivalency; up to 72 h

Compound	killing / toxicity to CD206 expressing macrophages (Annexin levels) ([1]; FIG. 17)	apoptosis induction (Annexin-V expression on MOs and in tumor tissue) ([1]; overnight)	lowest concentration at which activity against M.tb was maintained [2] [µM]
COc1cccc2c1C(=O)c1c(O)c3c(c(O)c1C2=O)C[C@@](O)(C(=O)CO)C[C@@H]3O[C@H]1C[C@H](N)[C@H](O)[C@H](C)O1 [Docorubicin, doxorubicin]	no toxicity	less effect	–
NNC(=O)c1ccncc1 [INH, isoniazid]	–	–	0.0312
